Reference: patent US9457015B2, “2-aminothiazole derivative and anti-cancer composition comprising same as active ingredient” (Chung-Ang University Industry-Academic Cooperation …, priority 2012, dated 2016)

Columns and labels:
lung cancer cells (A549) = assay: Cytotoxicity by MTT analysis, A549; type: cell-based
Method: (§1) Toxicity to cells was analyzed using 3-[4,5-dimethylthiazol-2-yl]-2,5-diphenyl-tetra zolium bromide (MTT) analysis. As cancer cells to be measured, 8.0×10^3 cells/mL was aliquoted on a 96-well culture dish and then the cells were cultured for 24 hours. The next day, the synthesized compound was dissolved in a medium according to each concentration, and diluted in a medium according to each concentration. The medium in which the compound was dissolved according to each concentration was added to a culture dish at […], dimethyl sulfoxide (DMSO) was added to a control well so as to have the same volume as the added compound. After the addition, the cells were cultured in an incubator in 5% CO2 at 37° C., and then survival capability of cells was measured at 24 hours and 48 hours after the culture. After the medium was removed, the cells were washed twice using PBS, then 200 μL of a solution containing 1 mg/mL of MTT (Sigma-Aldrich Chemical Co., USA) was added thereto, and then the cells were further cultured for 3 hours in a CO2 incubator at 37° C. The 96-well culture dish was centrifuged for 10 minutes at 2000 rpm to remove the MTT solution. […] The solution was added to the 96-well culture dish, and then absorbance was measured at 540 nm. Relative absorbance was calculated using absorbance according to concentration of drugs divided by absorbance of a control group (drug-untreated group).

[1] = test system: ovarian cancer cells (SK-OV-3); assay: Cytotoxicity by MTT analysis, SK-OV-3; type: cell-based; details: Homo sapiens, SK-OV-3, MTT analysis, read-out: IC50 (nM) SK-OV3 Ovarian cancer
Method: as §1

[2] = test system: skin cancer cells (SK-MEL2); assay: Cytotoxicity by MTT analysis, SK-MEL2; type: cell-based
Method: as §1

[3] = test system: colorectal cancer cells (HCT15); assay: Cytotoxicity by MTT analysis, HCT15; type: cell-based
Method: as §1

[4] = test system: prostate cancer cell line, PC3; assay: Cytotoxicity by MTT analysis, PC3; type: cell-based; details: PC3 prostate cancer cells
Method: The prostate cancer cell line, PC3 was obtained from Korean Cell Line Bank. After adding Rosewell Park Memorial Institute (RPMI) 1640 cell culture medium (LM001-01, WelGEN) containing 10% fetal bovine serum (FBS), 100 units/mL of penicillin and 100 μg/mL of streptomycin to a 100 Φ dish, cells were inoculated on the dish and cultured in a CO2 incubator (VS-9000C, vision) in 5% CO2/95% humidified air atmosphere at 37° C.
Toxicity to cells was analyzed using 3-[4,5-dimethylthiazol-2-yl]-2,5-diphenyl-tetra zolium bromide (MTT) analysis. As cancer cells to be measured, 8.0×10^3 cells/mL was aliquoted on a 96-well culture dish and then the cells were cultured for 24 hours. The next day, the synthesized compound was dissolved in a medium according to each concentration, and diluted in a medium according to each concentration. […] After the addition, the cells were cultured in an incubator in 5% CO2 at 37° C., and then survival capability of cells was measured at 24 hours and 48 hours after the culture. […] The solution was added to the 96-well culture dish, and then absorbance was measured at 540 nm. Relative absorbance was calculated using absorbance according to concentration of drugs divided by absorbance of a control group (drug-untreated group).

[5] = test system: breast cancer cells (MCF7); assay: Cytotoxicity by MTT analysis, MCF7; type: cell-based; details: Homo sapiens
Method: as §1

[6] = test system: prostate cancer cell line, PC3, transplanted; assay: Anti-cancer effect in vivo in mice with transplanted PC3 tumors; details: 2 mg/kg/day i.v. for four consecutive days, compared 7 days after stoppage
Method: The anti-cancer activity of the compound according to the present invention, HF-154 was measured in in-vivo using mice in which a prostate cancer cell line, PC3, was transplanted. An experimental group included a group of two mice to which an excipient (vehicle) was administered and a group of four mice to which the compound according to the present invention, HF-154, was administered. The compound according to the present invention, HF-154, was administered to each mouse in an amount of 2 mg/kg/day (100 μL i.v.). First, after administration for four consecutive days, administration was stopped, and tumor growth was compared at 7 days after the stoppage.

SMILES: O=C(CCc1ccco1)Nc1ncc(-c2ccc(F)cc2)s1 [HF-154, N-(5-(4-fluorophenyl)thiazol-2-yl)-3-(furan-2-yl)propanamide]
- IC50 (lung cancer cells (A549)): ~3 nM
- IC50 [1]: ~0.5 nM
- IC50 [2]: ~5 nM
- IC50 ([3]; Homo sapiens, HCT-15, MTT analysis): 1 to 5 nM
- IC50 ([3]; MTT analysis): ~1 nM
- IC50 [4]: ~0.1 nM
- IC50 [5]: ~0.3 nM
- size of the tumor compared to the excipient administration group [6]: significantly reduced
